Calls of active or inactive are those of the source.
What was measured:
Fatty acid synthase [1] = molecular target: T1, Fatty acid synthase (Homo sapiens, UniProt P49327); assay: inhibition of human FAS-TE enzyme activity – biochemical, endpoint fluorescence intensity, uHTS hits, dose response (AID 624327); type: functional;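 note: fluorescence from hydrolysis of an O-methyl fluorescein acyl ester substrate by the enzyme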
Fatty acid synthase [2] = molecular target: T1, Fatty acid synthase; assay: inhibition of human FAS-TE enzyme activity – biochemical, kinetic fluorescence intensity, dose response (AID 624326); type: functional;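 note: rate of fluorescence rise from hydrolysis of a fluorogenic O-methyl fluorescein ester substrate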
[3] = viability of uninfected HEp-2 cells – cell-based, HTS, cytotoxicity control for RSV inhibitor project, dose response (AID 2410); type: functional; conditions: human respiratory syncytial virus
[4] = Luminescence Cell-Based Dose Retest to Confirm Inhibitors of Cancer Stem Cells. [Related pubchem assays (depositor defined):AID2717, AID2721]; type: functional; conditions: Homo sapiens
H9c2 = assay: cells; type: functional, cell-based; conditions: Rattus norvegicus, H9c2, Myocardium;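 note: confirmatory concentration-response retest of ultra-high-throughput screening hits for modulation of myocardial damage; cell death induced by hydrogen peroxide oxidative stress; compound pretreatment for 60 min then peroxide exposure for 2 h; potency is for protecting the cells against peroxide damage rather than for killing them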
[5] = microbe, parasite or virus in culture; type: functional; conditions: Mycobacterium tuberculosis
[6] = molecular target: Glyceraldehyde-3-phosphate dehydrogenase (Homo sapiens, UniProt P04406)
Sequence of Glyceraldehyde-3-phosphate dehydrogenase (P04406 whole entry): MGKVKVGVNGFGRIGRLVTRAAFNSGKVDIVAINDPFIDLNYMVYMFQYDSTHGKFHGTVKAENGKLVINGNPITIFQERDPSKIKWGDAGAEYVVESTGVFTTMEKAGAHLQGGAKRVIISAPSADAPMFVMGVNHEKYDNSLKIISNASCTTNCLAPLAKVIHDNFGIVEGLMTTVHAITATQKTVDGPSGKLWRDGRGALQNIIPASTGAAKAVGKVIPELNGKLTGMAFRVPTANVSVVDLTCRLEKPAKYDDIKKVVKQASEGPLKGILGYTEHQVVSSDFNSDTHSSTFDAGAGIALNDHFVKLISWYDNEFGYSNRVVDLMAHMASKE

[7] = viability of PTEN-deleted HCT116 cells – cell-based, HCT116 PTEN knockout, dose response (AID 1047); type: functional;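 note: HCT116 colon tumor cells with PTEN knocked out; cells exposed to compound for 60 hours before readout; potency for loss of cell viability measured by luminescence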
[8] = molecular target: T2, High affinity choline transporter 1 (Homo sapiens, UniProt Q9GZV3); assay: human choline transporter blockers, potency – cell-based, 5-point CRC, membrane potential dye, dose response (AID 504840); type: functional
T2 sequence (Q9GZV3 whole entry): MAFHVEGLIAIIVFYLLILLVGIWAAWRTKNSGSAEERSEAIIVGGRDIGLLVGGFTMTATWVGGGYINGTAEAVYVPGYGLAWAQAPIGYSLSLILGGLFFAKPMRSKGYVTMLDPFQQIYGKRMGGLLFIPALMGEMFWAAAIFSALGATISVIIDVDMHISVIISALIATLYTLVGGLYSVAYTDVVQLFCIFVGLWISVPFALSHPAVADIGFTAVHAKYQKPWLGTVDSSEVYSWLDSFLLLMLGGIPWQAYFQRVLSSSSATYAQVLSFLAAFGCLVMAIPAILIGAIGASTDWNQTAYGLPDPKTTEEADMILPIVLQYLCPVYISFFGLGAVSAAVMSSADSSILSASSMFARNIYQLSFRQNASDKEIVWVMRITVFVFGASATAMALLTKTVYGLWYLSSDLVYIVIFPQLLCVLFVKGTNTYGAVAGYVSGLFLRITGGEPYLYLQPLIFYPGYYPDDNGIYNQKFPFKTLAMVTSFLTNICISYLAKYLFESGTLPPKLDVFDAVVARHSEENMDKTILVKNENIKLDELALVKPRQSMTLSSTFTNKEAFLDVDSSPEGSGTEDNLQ

[9] = viability of HCT116 lacking mutant beta-catenin – cell-based, human colon tumor, dose response (AID 1045); type: functional;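 note: HCT116 colon tumor cells with beta catenin knocked out; cells exposed to compound for 60 hours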
[10] = Trypanosoma cruzi growth suppression in host cells – NIH3T3 host cells, beta-gal luminescence, confirmation (AID 2044); type: functional, cell-based;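 note: intracellular parasites grown in NIH/3T3 mouse fibroblasts as host cells; luminescent beta-galactosidase reporter signal from transgenic T. cruzi replicating inside host cells; inhibitors lower the luminescence signal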
[11] = NIH3T3 cell viability loss – ATP luminescence, mouse fibroblasts, counter-screen, dose response (AID 2010); type: functional, cell-based;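 note: cells exposed to compound for about 90 hours before reading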
[12] = loss of viability in HepG2 cells – cell-based, CellTiter-Glo, cherry-picked, cytotoxicity control for Shn3 inhibitor project, dose response (AID 624134); type: functional
[13] = reduction of Shn3 3'UTR-driven luciferase in osteoblasts – cell-based, Clone20 osteoblasts, firefly luciferase, cherry-picked, dose response (AID 624132); type: functional;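 note: firefly luciferase luminescence from reporter carrying the Shn3 3'UTR in osteoblasts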
Genome polyprotein = Genome polyprotein (dengue virus type 2, UniProt P29990); assay: flavivirus cap methylation enzyme inhibition – biochemical, confirmation dose response, primary screen (AID 588689); type: functional
Sequence of Genome polyprotein (P29990 2492-3391 limits assumed): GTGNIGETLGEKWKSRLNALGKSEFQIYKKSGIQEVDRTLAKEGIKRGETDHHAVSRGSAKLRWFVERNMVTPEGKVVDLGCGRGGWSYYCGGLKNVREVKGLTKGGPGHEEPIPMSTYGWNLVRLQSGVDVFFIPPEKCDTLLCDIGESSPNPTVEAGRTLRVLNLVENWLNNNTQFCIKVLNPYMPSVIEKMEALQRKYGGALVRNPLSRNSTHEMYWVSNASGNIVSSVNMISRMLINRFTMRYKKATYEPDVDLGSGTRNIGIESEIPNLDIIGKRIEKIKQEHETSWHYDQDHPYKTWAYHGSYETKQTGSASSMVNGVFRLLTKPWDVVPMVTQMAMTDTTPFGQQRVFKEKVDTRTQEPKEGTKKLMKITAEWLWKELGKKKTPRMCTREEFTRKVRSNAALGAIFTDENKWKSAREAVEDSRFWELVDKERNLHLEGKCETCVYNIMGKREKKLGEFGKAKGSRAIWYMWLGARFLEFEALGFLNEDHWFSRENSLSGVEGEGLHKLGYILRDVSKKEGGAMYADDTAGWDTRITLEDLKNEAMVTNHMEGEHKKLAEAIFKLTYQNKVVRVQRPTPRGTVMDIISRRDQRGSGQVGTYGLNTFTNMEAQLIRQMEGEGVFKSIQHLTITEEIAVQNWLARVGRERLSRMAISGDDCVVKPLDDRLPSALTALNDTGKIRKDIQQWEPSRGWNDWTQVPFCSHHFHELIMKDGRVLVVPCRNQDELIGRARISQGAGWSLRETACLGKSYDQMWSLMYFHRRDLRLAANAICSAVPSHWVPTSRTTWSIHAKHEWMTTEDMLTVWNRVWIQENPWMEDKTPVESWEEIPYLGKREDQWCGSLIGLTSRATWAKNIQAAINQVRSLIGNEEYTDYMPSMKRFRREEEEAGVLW

[14] = HEK-293T viability loss after treatment – luminescence, T-cell screen hits, cytotoxicity control for TCR NF-kB inhibitor project, dose response (AID 489026); type: functional, cell-based;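 note: cells exposed to compound about 14 hours before the viability readout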
[15] = THP-1 cell cytotoxicity, dose response, cytotoxicity control for non-replicating M. tuberculosis project (AID 489025); type: functional
[16] = NIH-3T3 fibroblast cytotoxicity, dose response, cytotoxicity control, cell-based, fluorescence, Alamar Blue, secondary assay (AID 2327); type: functional;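 note: NIH-3T3 mouse fibroblasts cultured with fluconazole at 8 µg/mL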
[17] = fluconazole-exposed Candida albicans growth modulators – fluorescence, retest, confirmation (AID 2467); type: functional, cell-based
[18] = molecular target: Induced myeloid leukemia cell differentiation protein Mcl-1 (Homo sapiens, UniProt Q07820); type: functional
Sequence of Induced myeloid leukemia cell differentiation protein Mcl-1 (Q07820 whole entry): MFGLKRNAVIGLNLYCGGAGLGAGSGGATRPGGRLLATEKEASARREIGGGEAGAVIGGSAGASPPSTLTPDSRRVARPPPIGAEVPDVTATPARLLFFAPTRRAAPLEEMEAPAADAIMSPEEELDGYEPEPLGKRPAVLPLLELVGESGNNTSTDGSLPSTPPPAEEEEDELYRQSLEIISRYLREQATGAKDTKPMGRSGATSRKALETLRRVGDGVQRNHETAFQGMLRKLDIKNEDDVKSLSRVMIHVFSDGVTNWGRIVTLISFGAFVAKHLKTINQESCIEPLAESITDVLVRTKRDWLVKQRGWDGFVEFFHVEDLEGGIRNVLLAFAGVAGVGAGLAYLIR

[19] = system: Streptococcus sp. 'group A'; assay: Streptococcus pyogenes SK(-)GAS viability under kanamycin – luminescence, BacTiterGlo, confirmation, counter-screen for streptokinase expression inhibitor project, dose response (AID 1900); type: functional, organism-based
Streptococcus = assay: GAS UMAA2166 growth inhibition – luminescence, BacTiterGlo, counter-screen for streptokinase expression inhibitor project, dose response (AID 1915); type: functional, organism-based;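 note: potency for reduction of bacterial viability or growth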
cells = type: functional
Paired box protein Pax-8 = Paired box protein Pax-8 (Homo sapiens, UniProt Q06710); assay: PAX8 transcriptional activity inhibition in RMG-I – RMG-I cells, luciferase, cherry-pick, dose response (AID 687027); type: functional, cell-based;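 note: luciferase reporter driven by Pax8 target thyroperoxidase promoter measured by SteadyGlo luminescence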
Sequence of Paired box protein Pax-8 (Q06710 whole entry): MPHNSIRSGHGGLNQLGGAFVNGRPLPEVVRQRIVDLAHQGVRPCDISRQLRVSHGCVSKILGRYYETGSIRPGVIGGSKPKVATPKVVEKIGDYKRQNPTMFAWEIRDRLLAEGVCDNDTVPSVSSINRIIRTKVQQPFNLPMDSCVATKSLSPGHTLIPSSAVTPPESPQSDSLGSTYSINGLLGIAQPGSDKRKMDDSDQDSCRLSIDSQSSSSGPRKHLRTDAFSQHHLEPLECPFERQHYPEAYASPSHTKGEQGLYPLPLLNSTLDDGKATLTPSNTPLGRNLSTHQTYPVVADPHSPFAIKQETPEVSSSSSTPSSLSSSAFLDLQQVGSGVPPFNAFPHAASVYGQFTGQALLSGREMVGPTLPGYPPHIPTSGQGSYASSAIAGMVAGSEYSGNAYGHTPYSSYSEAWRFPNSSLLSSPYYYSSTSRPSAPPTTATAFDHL

P388 = assay: cells; type: functional; conditions: Mus musculus
P388/ADR = assay: cells; type: functional; conditions: Mus musculus
SN12K1 = assay: cells; type: functional; conditions: Homo sapiens
[20] = non-specific 3'UTR reporter inhibition in Clone20-Shn3RL – cell-based, Renilla luciferase, cherry-picked, counter-screen for Shn3 inhibitor project, dose response (AID 624133); type: functional
[21] = molecular target: T3, Polyadenylate-binding protein 1 (Homo sapiens, UniProt P11940); assay: MLLE binding blockers, Cy5 peptide tracer – biochemical, fluorescence polarization, Cy5-PAM2 peptide, secondary, miRNA deadenylation inhibitor project, dose response (AID 602260); type: functional; conditions: read-out: IC50_Mean
[22] = molecular target: T3, Polyadenylate-binding protein 1; assay: MLLE domain peptide-binding blockers, IC50 – biochemical, fluorescence polarization, FITC-PAM2 peptide, dose response (AID 602259); type: functional; conditions: read-out: IC50_Mean

T1 sequence (P49327 whole entry): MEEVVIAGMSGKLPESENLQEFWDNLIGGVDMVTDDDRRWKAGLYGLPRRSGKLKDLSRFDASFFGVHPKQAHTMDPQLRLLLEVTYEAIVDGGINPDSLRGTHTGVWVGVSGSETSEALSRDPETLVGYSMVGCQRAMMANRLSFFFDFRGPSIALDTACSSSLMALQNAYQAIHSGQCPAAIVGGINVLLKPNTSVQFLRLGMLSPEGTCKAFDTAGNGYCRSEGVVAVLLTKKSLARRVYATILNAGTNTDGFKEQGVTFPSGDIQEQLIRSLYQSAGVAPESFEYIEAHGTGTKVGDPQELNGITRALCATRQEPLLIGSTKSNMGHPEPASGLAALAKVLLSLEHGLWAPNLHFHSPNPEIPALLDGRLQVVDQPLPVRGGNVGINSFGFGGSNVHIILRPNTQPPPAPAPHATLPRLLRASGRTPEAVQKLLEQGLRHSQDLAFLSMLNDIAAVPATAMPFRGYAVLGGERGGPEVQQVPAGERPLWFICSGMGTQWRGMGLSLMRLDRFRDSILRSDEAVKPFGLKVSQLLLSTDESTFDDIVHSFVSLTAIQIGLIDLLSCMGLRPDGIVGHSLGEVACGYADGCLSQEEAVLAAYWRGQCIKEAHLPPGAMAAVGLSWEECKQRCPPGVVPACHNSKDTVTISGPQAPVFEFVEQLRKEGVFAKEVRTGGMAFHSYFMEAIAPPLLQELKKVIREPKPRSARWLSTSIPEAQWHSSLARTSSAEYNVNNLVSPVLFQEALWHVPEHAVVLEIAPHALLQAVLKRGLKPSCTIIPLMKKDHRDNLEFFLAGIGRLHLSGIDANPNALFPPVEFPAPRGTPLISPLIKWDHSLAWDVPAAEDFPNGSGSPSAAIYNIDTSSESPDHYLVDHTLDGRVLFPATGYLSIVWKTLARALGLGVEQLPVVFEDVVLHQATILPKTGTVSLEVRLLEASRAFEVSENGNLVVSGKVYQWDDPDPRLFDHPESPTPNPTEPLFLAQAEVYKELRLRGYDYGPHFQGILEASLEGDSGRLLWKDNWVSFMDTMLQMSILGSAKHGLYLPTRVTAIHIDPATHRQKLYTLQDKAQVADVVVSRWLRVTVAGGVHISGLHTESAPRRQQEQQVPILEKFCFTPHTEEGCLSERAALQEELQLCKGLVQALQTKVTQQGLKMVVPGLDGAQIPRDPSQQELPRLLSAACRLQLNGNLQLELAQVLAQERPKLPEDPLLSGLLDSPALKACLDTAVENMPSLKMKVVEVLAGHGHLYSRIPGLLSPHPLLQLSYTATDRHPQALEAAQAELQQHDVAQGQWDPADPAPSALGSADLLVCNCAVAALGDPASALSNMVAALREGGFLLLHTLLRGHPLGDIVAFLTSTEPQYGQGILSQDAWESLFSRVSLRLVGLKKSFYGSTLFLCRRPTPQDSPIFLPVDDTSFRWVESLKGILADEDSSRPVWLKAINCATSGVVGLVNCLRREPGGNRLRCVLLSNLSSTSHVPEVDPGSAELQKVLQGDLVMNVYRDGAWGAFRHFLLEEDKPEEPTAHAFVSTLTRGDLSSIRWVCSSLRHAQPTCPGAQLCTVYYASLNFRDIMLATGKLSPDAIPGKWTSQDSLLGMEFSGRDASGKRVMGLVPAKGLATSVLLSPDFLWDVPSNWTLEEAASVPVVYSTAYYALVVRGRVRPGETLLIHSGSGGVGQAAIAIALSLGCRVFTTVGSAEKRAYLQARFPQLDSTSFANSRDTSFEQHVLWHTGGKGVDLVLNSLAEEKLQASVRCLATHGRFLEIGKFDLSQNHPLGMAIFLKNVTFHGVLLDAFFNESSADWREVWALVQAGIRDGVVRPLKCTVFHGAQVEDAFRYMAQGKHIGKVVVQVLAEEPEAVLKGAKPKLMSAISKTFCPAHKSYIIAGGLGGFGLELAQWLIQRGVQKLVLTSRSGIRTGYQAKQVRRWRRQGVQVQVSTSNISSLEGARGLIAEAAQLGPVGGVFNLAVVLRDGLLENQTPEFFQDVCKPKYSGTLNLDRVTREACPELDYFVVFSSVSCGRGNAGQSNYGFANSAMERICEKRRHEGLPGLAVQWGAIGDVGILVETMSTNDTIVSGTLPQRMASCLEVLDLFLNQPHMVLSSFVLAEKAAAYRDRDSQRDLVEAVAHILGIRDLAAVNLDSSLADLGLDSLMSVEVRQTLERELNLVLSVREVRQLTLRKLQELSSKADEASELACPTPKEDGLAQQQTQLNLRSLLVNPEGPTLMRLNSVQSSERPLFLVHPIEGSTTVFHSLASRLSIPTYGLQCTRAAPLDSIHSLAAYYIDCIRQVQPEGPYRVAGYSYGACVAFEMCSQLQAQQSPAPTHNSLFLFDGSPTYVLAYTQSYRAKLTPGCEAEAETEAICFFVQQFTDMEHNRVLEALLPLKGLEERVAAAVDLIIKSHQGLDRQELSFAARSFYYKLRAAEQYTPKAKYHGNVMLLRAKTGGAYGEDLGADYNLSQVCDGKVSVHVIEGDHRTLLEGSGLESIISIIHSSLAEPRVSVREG

Cc1cc(NC(=O)COC(=O)c2cc([N+](=O)[O-])ccc2N2CCOCC2)ccc1Br
IC50 (Fatty acid synthase [1]): 2.82 µM (active) | IC50 (Fatty acid synthase [2]): 4.33 µM (active)

Cn1nc(-c2ccccc2F)c2cc(C(=O)Nc3ccc4c(c3)OCCO4)sc21
CC50 [3]: 26.9 µM (active) | AC50 [4]: 3.48 µM (active) | IC50 (H9c2): > 79 µM (inactive) | CC50 [5]: > 40 µM (active)

Cc1cc(NS(=O)(=O)c2ccc(NC(=O)C(F)(F)F)cc2)no1
IC50 [6]: > 100 µM (not active)

CCCn1c(CN2CCN(c3cccc(Cl)c3)CC2)nc2c1c(=O)n(C)c(=O)n2C
EC50 [7]: 39.9 µM (active) | IC50 [8]: 14.2 µM (active) | EC50 [9]: 33.1 µM (active)

Fc1cccc(Cc2noc(CN3CCC(c4ccncc4)CC3)n2)c1
IC50 [8]: 14.5 µM (active) | EC50 [10]: 2.11 µM (active) | EC50 [11]: > 60 µM (not active)

O=[N+]([O-])c1cccc(S(=O)(=O)NCc2ccncc2)c1
AC50 [12]: 48.4 µM (active) | AC50 [13]: 3.09 µM (active)

O=C(NN1C(=O)C2C(c3ccccc3)C=CC(c3ccccc3)C2C1=O)c1cccc(Br)c1 (stereo unspecified)
IC50 (Fatty acid synthase [1]): 12.1 µM (active) | IC50 (Fatty acid synthase [2]): 9.22 µM (active)

O=C(c1ccc(Cl)c(S(=O)(=O)N2CCCC2)c1)N1CCN(c2ccccc2)CC1
IC50 [8]: 6.61 µM (active)

COc1cccc(N2C(=O)C(Cl)=C(N3CCN(CCO)CC3)C2=O)c1
IC50 [6]: > 50 µM (inconclusive)

CC(C)(C)C(=O)/C(=C\c1cccc([N+](=O)[O-])c1)n1cncn1
CC50 [5]: 4.33 µM (active)

CCOC(=O)c1cnc2c(C)cc(Cl)cc2c1N1CCN(C)CC1
IC50 [8]: 11.5 µM (active)

CCCCNC(=O)c1onc(CSc2cccc3ccccc23)c1C(=O)O
IC50 (Genome polyprotein): 49.6 µM (active)

CCOc1nc(SCCOc2ccc(C)cc2)nc(N(C)C)n1
EC50 [7]: 45 µM (active) | EC50 [9]: 56.2 µM (active)

CN(C)C1=C(Cl)C(=O)N(c2ccnc(Cl)c2)C1=O
IC50 [6]: > 50 µM (inconclusive)

Cc1c(C(=O)N2CCOCC2)[nH]c2c1C(=O)CC(c1ccccc1Cl)C2 (stereo unspecified)
IC50 [14]: > 80 µM (inactive)

CC(C)n1c(O)c(N=NC(=O)Cc2csc(N3CCOCC3)n2)c2ccccc21
IC50 [8]: 13.5 µM (active)

Clc1ccc(CN2C3=NCCCN3c3ccccc32)cc1
CC50 [15]: > 40 µM (active)

Cc1cc(C)cc(NC(=O)c2ccc(Cn3nc(C)c(Cl)c3C)o2)c1
CC50 [3]: 23.5 µM (active) | CC50 [5]: > 40 µM (active)

Cc1nn(-c2ccccc2)c(N)c1N=Nc1ccc(Cl)cc1
EC50 [16]: 22.8 µM (inconclusive) | EC50 [17]: 5.82 µM (active) | CC50 [5]: > 40 µM (active)

COc1ccc(NC(=O)c2ccccc2N(Cc2ccccc2)S(C)(=O)=O)cc1
IC50 [18]: 40.6 µM (not active)

Cc1nc2ccccc2c2nc3ccccc3n12
CC50 [5]: > 40 µM (active)

Cc1ccccc1OCCCCc1c(C)n[nH]c1C
CC50 [15]: > 40 µM (active) | EC50 [19]: 9.02 µM (active) | EC50 (Streptococcus): 19 µM (active) | IC50 (cells): 7 µM (active)

Cc1ccc(N2C(=O)C(Cl)=C(N3CCOCC3)C2=O)cc1
IC50 [6]: > 50 µM (inconclusive)

COC(=O)c1ccc(C2c3c(oc4ccc(Cl)cc4c3=O)C(=O)N2CCN2CCOCC2)cc1 (stereo unspecified)
IC50 (Fatty acid synthase [1]): 14.6 µM (active) | IC50 (Fatty acid synthase [2]): 11.6 µM (active)

N#C/C(=C\c1ccc(C(=O)O)cc1)c1nc(O)c2c3c(sc2n1)CCCC3
IC50 [18]: 3.52 µM (active)

COCCCNCCOCCOc1ccc(Cl)cc1C(C)(C)C
EC50 [7]: 14.9 µM (active) | EC50 [9]: 14.3 µM (active)

COc1cc(CNCCc2ccc(S(N)(=O)=O)cc2)ccc1OCc1ccc(Cl)cc1
EC50 [7]: 9.48 µM (active) | EC50 [10]: 0.43 µM (active) | EC50 [11]: > 60 µM (not active) | EC50 [9]: 7.47 µM (active)

O=C(C1=C[C@@H](c2ccc(C(F)(F)F)cc2)C[C@@H](OCc2ccc(CO)cc2)O1)N1CCN(Cc2ccccc2)CC1
IC50 [18]: 1.48 µM (not active)

CCO[C@H]1OC(C(=O)N2CCN(Cc3ccccc3)CC2)=C[C@@H](c2ccc(C(F)(F)F)cc2)[C@@H]1CCCO
AC50 (Paired box protein Pax-8): 14.3 µM (active)

Cc1cc(C)c2nc(N3C(=O)C(O)=C(C(=O)c4ccco4)C3c3ccc(O)cc3)sc2c1 (stereo unspecified)
IC50 (Genome polyprotein): 30.4 µM (active)

NC(CSC(c1ccccc1)(c1ccccc1)c1ccccc1)C(=O)O (stereo unspecified)
GI50 (P388): 0.494 µM (active) | GI50 (P388/ADR): 5.43 µM (inactive) | GI50 (SN12K1): 0.352 µM (active)

NS(=O)(=O)OCCCCCCCOS(N)(=O)=O
GI50 (P388): 35.1 µM (inactive) | GI50 (P388/ADR): > 83 µM (inactive) | GI50 (SN12K1): 273 µM (inactive)

Cc1ccc(-c2csc3nc(C(C)C)oc(=O)c23)c(C)c1
IC50 (Fatty acid synthase [1]): 1.32 µM (active) | IC50 (Fatty acid synthase [2]): 0.761 µM (active)

COc1ccccc1Cc1c(-c2ccco2)nc2c(C)cc(Br)cn12
AC50 [12]: 45.6 µM (active) | AC50 [20]: 5.7 µM (active) | AC50 [13]: 1.9 µM (active)

O=P(NCCCO)(OCc1ccccc1)N(CCCl)CCCl (stereo unspecified)
GI50 (P388): > 100 µM (inactive) | GI50 (P388/ADR): > 100 µM (inactive) | GI50 (SN12K1): > 100 µM (inactive)

CN1CCC23c4ccccc4NC1C21CCN(C)C3Nc2ccccc21
GI50 (P388): 57.7 µM (inactive) | GI50 (P388/ADR): > 254 µM (inactive) | GI50 (SN12K1): 202 µM (inactive)

N=C(N)SCc1cccc([N+](=O)[O-])c1
GI50 (P388): 15.5 µM (inactive) | GI50 (P388/ADR): 15.7 µM (inactive) | GI50 (SN12K1): 32.7 µM (inactive)

CC(=O)Oc1cc2c(cc1OC(C)=O)OCC(c1ccc(C)cc1)C2 (stereo unspecified)
GI50 (P388): 2.87 µM (inactive) | GI50 (P388/ADR): 3.05 µM (inactive) | GI50 (SN12K1): 14 µM (inactive)

CC(C)(C)OC(=O)NCCc1onc(-c2cccc([N+](=O)[O-])c2)c1C(=O)O
IC50 (Fatty acid synthase [1]): 1.47 µM (active) | IC50 (Fatty acid synthase [2]): 1.16 µM (active)

CCCC#Cc1ccc([C@@H]2[C@H]3CN(S(=O)(=O)c4ccccc4F)CCCCN3[C@H]2CO)cc1
AC50 (Paired box protein Pax-8): 22.4 µM (active)

COc1cccc(-c2ccc3c(c2)[C@@H]2[C@@H](CCN2C(=O)NC2CCCCC2)[C@H](CO)N3C)c1
AC50 (Paired box protein Pax-8): 10.9 µM (active)

O=C(C[C@@H]1C[C@H]2c3cc(NC(=O)C4CCOCC4)ccc3O[C@H]2[C@H](CO)O1)NCc1ccc(Oc2ccccc2)cc1
AC50 (Paired box protein Pax-8): 34.3 µM (active)

CCOc1cc(/C=C2/S/C(=N/c3ccccc3)N(Cc3cccnc3)C2=O)ccc1OCC#N
EC50 [7]: 26.9 µM (active) | EC50 [9]: 32.5 µM (active)

CC(=C/c1ccccc1)/C=N/Nc1nc(N2CCCCC2)nc(N2CCCCC2)n1
EC50 [7]: 24 µM (active) | EC50 [9]: 21.6 µM (active)

c1cc2c3c(c1)c1cc4c(cc1c[n+]3CC2)OCO4 [ANHYDROLYCORINIUM CHLORIDE]
GI50 (P388): 0.515 µM (active) | GI50 (P388/ADR): 22 µM (inactive) | GI50 (SN12K1): 1.95 µM (inactive)

CN(C)CCN1C(=O)c2cccc3cc([N+](=O)[O-])cc(c23)C1=O [MITONAFIDE]
IC50 [21]: > 66 µM (inactive) | IC50 [22]: 43.4 µM (inactive) | AC50 [12]: 2.2 µM (active) | AC50 [13]: 1.11 µM (active)
